The text below walks through data of patent US20100063065A1 (Inpharmatica Limited, priority 2005, published 2010).

The structures appear in SMILES notation. Bounds are passed on as bounds.

The target in the first assay is T1, PPARδ (Homo sapiens, UniProt Q03181).
T1 construct: fused to amino acids 147-441 of PPARδ downstream of CMV promoter; expressed in transfected cells; host or cells: HEK293 cells, transiently transfected with pFACMV-PPARδ using Fugene
T1 sequence (Q03181 147-441): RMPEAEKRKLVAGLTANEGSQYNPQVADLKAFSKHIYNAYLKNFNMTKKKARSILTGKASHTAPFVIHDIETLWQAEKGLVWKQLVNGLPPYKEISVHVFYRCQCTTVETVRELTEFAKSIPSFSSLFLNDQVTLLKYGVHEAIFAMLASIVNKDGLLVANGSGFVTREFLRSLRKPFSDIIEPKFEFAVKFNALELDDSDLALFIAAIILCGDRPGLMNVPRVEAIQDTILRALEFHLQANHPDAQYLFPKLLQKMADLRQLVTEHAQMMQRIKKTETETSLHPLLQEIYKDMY
The assay is described as follows: Transactivation assay (PPARδ GAL4 assay) in transiently transfected HEK293 cells. The class given is cell-based. As to conditions: luciferase reporter, Table 1. As for the experimental part: Compounds were screened for their functional potency in transiently transfected HEK293 cells for their ability to activate PPAR subtypes. Cells were cultured in DMEM (Invitrogen) supplemented with 10% foetal calf serum, glutamine, penicillin and streptomycin and plated at 10 000 cells/well of a 96-well solid white plate and incubated at 37° C./5% CO2 for 24 hours. Media was removed and the cells washed with PBS. Cells were then transiently transfected using Fugene (Roche) with 50 ng pFACMV-PPARδ (plasmid encoding amino acids 1-147 of the GAL4 DNA binding domain, fused to amino acids 147-441 of PPARδ downstream of CMV promoter) and 250 ng pFR-Luc (reporter plasmid containing 5×GAL4 response elements upstream of a luciferase gene), using a ratio of 3:1 Fugene:DNA. 100 μl of this transfection mixture in DMEM (without foetal calf serum) was added to each well, and the incubation continued for a further 24 hours. The cells are then again washed with PBS prior to the addition of 100 μl reduced serum medium (OptiMEM; Invitrogen). Compounds were added (10 μl in 2% DMSO in OptiMEM) to achieve final concentrations between 0-30 μM. The cells were then returned to the incubator for a further 24 hours. 100 μl of luciferase reagent (Bright Glo, Promega) was added directly to each well, and the luminescence determined using a suitable luminometer.
To measure the selectivity of compounds, their ability to transactivate GAL4 fusions of PPARα LBD and PPARγ LBD was determined. The activity of compounds was expressed as a percentage relative to control compounds: PPARγ rosiglitazone (BRL 49653), PPARδ GW501516 (11) or PPARα KCL1999000269 (12). EC50 values were calculated by fitting of the data to a sigmoidal dose response curve.
In general terms: A reporter such as luciferase makes a cellular process visible.
The term EC50 denotes the concentration that produces a half-maximal response. In turn, `CCc1cc(C(=O)c2ccc(Cl)cc2)c(NC(=O)CSC(C)(C)C(=O)O)s1` [Example 24, 2-{[3-(4-Chloro-benzoyl)-5-ethyl-thiophen-2-ylcarbamoyl]-methylsulfanyl}-2-methyl-propionic acid] displayed an EC50 of 100 to 1000 nM.

Compound `CCc1cc(C(=O)c2ccc(F)c(Cl)c2)c(NC(=O)CC(C)(C)CC(=O)O)s1` [Example 32, 4-[3-(3-Chloro-4-fluoro-benzoyl)-5-ethyl-thiophen-2-ylcarbamoyl]-3,3-dimethyl-butyric acid] displayed a 50% effective concentration (EC50) of 1000 to 30000 nM.

Compound `CCc1cc(C(=O)c2ccc(OC(F)(F)F)cc2)c(NC(=O)c2ccc(OC(C)(C)C(=O)O)cc2)s1` [Example 102, 2-{4-[5-Ethyl-3-(4-trifluoromethoxy-benzoyl)-thiophen-2-ylcarbamoyl]-phenoxy}-2-methyl-propionic acid] showed an EC50 of 100 to 1000 nM.

As for `COc1ccc(C(=O)c2cc(Cl)sc2NC(=O)CSCC(=O)O)cc1` [Example 66, {[5-Chloro-3-(4-methoxy-benzoyl)-thiophen-2-ylcarbamoyl]-methylsulfanyl}-acetic acid], the EC50 is 1000 to 30000 nM.

Compound `CCc1cc(C(=O)c2ccc(OC(F)(F)F)cc2)c(NC(=O)c2cccc(OCC(=O)O)c2)s1` [Example 100, {3-[5-Ethyl-3-(4-trifluoromethoxy-benzoyl)-thiophen-2-ylcarbamoyl]-phenoxy}-acetic acid] displayed a half-maximal effective concentration (EC50) of 100 to 1000 nM.

As for `CCc1cc(C(=O)c2ccc(OC(F)(F)F)cc2)c(NC(=O)CC2(CC(=O)O)CCCC2)s1` [Example 4, (1-{[5-Ethyl-3-(4-trifluoromethoxy-benzoyl)-thiophen-2-ylcarbamoyl]-methyl}-cyclopentyl)-acetic acid], the concentration giving a half-maximal response (EC50) lay in the range of 100 to 1000 nM.

In turn, `CCc1cc(C(=O)c2ccc(C)c(C)c2)c(NC(=O)CC(C)(C)CC(=O)O)s1` [Example 52, 4-[3-(3,4-Dimethyl-benzoyl)-5-ethyl-thiophen-2-ylcarbamoyl]-3,3-dimethyl-butyric acid] registered a concentration for a half-maximal effect (EC50) of 1000 to 30000 nM.

On to `CCc1cc(C(=O)c2ccc(OC(F)(F)F)cc2)c(NC(=O)CC(C)(C)CC(=O)O)s1` [Example 3, 4-[5-Ethyl-3-(4-trifluoromethoxy-benzoyl)-thiophen-2-ylcarbamoyl]-3,3-dimethyl-butylic acid], for which the EC50 lay in the range of 100 to 1000 nM.

In turn, `CCc1cc(C(=O)c2ccc(C#N)cc2)c(NC(=O)CSCC(=O)O)s1` [Example 35, {[3-(4-Cyano-benzoyl)-5-ethyl-thiophen-2-ylcarbamoyl]-methylsulfanyl}-acetic acid] showed an EC50 of 1000 to 30000 nM.

The compound `CCc1cc(C(=O)c2ccc(Oc3ccccc3)cc2)c(NC(=O)CC(C)(C)CC(=O)O)s1` [Example 13, 4-[5-Ethyl-3-(4-phenoxy-benzoyl)-thiophen-2-ylcarbamoyl]-3,3-dimethyl-butyric acid] yielded a 50% effective concentration (EC50) of 1000 to 30000 nM.

Take `CCc1cc(C(=O)c2ccc(Cl)cc2)c(NC(=O)CC(C)(C)CC(=O)O)s1` [Example 25, 4-[3-(4-Chloro-benzoyl)-5-ethyl-thiophen-2-ylcarbamoyl]-3,3-dimethyl-butyric acid]: the half-maximal effective concentration (EC50) is 1000 to 30000 nM.

`CCc1cc(C(=O)c2ccc(Br)cc2)c(NC(=O)CSCC(=O)O)s1` [Example 22, {[3-(4-Bromo-benzoyl)-5-ethyl-thiophen-2-ylcarbamoyl]-methylsulfanyl}-acetic acid] displayed an EC50 of less than 100 nM.

In turn, `CCCc1cc(C(=O)c2ccc(OC)cc2)c(NC(=O)CSCC(=O)O)s1` [Example 63, {[3-(4-Methoxybenzoyl)-5-propyl-thiophen-2-ylcarbamoyl]-methylsulfanyl}-acetic acid] had a half-maximal effective concentration (EC50) of 1000 to 30000 nM.

`CCc1cc(C(=O)c2ccc(OC(F)(F)F)cc2)c(NC(=O)c2cccc(SCC(=O)O)c2)s1` [Example 98, {3-[5-Ethyl-3-(4-trifluoromethoxy-benzoyl)-thiophen-2-ylcarbamoyl]-phenylsulfanyl}-acetic acid]: the 50% effective concentration (EC50) is 100 to 1000 nM.

Still in this assay, the particulars now being: luciferase reporter, Table 2.
`CCc1cc(C(=O)c2ccc(OC(F)(F)F)cc2)c(NC(=O)CN2CCCC2C(=O)O)s1` (centres unmarked) [Example 189, 1-{[5-Ethyl-3-(4-trifluoromethoxy-benzoyl)-thiophen-2-ylcarbamoyl]-methyl}-pyrrolidine-2-carboxylic acid] registered an EC50 of less than 100 nM.

`CCc1cc(C(=O)c2nc3ccc(Cl)cc3s2)c(NC(=O)CSCC(=O)O)s1` [Example 154, {[3-(6-Chloro-benzothiazole-2-carbonyl)-5-ethyl-thiophen-2-ylcarbamoyl]-methylsulfanyl}-acetic acid] yielded an EC50 of 100 to 1000 nM.

The compound `CCc1cc(C(=O)c2ccc(OC(F)(F)F)cc2)c(NC(=O)C(CC)SC(C)C(=O)O)s1` (centres unmarked) [Example 110, 2-{1-[5-Ethyl-3-(4-trifluoromethoxy-benzoyl)-thiophen-2-ylcarbamoyl]-propylsulfanyl}-propionic acid] had an EC50 of less than 100 nM.

Compound `CCc1cc(C(=O)c2ccc(OC(F)(F)F)cc2)c(NC(=O)CN2CCC[C@@H]2C(=O)O)s1` [Example 168, (R)-1-{[5-Ethyl-3-(4-trifluoromethoxy-benzoyl)-thiophen-2-ylcarbamoyl]-methyl}-pyrrolidine-2-carboxylic acid] returned a 50% effective concentration (EC50) of 100 to 1000 nM.

`CCc1cc(C(=O)c2ccc(OC(C)C)c(Cl)c2)c(NC(=O)CSCC(=O)O)s1` [Example 130, {[3-(3-Chloro-4-isopropoxy-benzoyl)-5-ethyl-thiophen-2-ylcarbamoyl]-methylsulfanyl}-acetic acid]: the concentration giving a half-maximal response (EC50) fell in the range of 100 to 1000 nM.

As for `CCc1cc(C(=O)c2ccc(OC(F)(F)F)cc2)c(NC(=O)c2ccc(CCC(=O)O)cc2)s1` [Example 116, 3-{4-[5-Ethyl-3-(4-trifluoromethoxy-benzoyl)-thiophen-2-ylcarbamoyl]-phenyl}-propionic acid], the concentration for a half-maximal effect (EC50) lay in the range of 100 to 1000 nM.

For `CCc1cc(C(=O)c2ccc(OC(F)(F)F)c(F)c2)c(NC(=O)CCC(C)(C)C(=O)O)s1` [Example 148, 4-[5-Ethyl-3-(3-fluoro-4-trifluoromethoxy-benzoyl)-thiophen-2-ylcarbamoyl]-2,2-dimethyl-butyric acid], the concentration for a half-maximal effect (EC50) is 100 to 1000 nM.

The compound `CCc1cc(C(=O)c2nc3cc(Cl)ccc3s2)c(NC(=O)CSCC(=O)O)s1` [Example 155, {[3-(5-Chloro-benzothiazole-2-carbonyl)-5-ethyl-thiophen-2-ylcarbamoyl]-methylsulfanyl}-acetic acid] returned an EC50 of 100 to 1000 nM.

`CCc1cc(C(=O)c2ccc(F)cc2)c(NC(=O)CSc2ccc(OCC(=O)O)cc2)s1` [Example 135, (4-{[5-Ethyl-3-(4-fluoro-benzoyl)-thiophen-2-ylcarbamoyl]-methylsulfanyl}-phenoxy)-acetic acid] displayed a 50% effective concentration (EC50) of 1000 to 30000 nM.

Turning to `CCc1cc(C(=O)c2cccc(OC(F)(F)F)c2)c(NC(=O)CSCC(=O)O)s1` [Example 143, {[5-Ethyl-3-(3-trifluoromethoxy-benzoyl)-thiophen-2-ylcarbamoyl]-methylsulfanyl}-acetic acid], the concentration giving a half-maximal response (EC50) lay within 1000 to 30000 nM.

In turn, `CCc1cc(C(=O)c2ccc(OC(F)(F)F)cc2)c(NC(=O)CN([C@@H](C)C(=O)O)S(C)(=O)=O)s1` [Example 126, (S)-2-({[5-Ethyl-3-(4-trifluoromethoxy-benzoyl)-thiophen-2-ylcarbamoyl]-methyl}-methanesulfonyl-amino)-propionic acid] returned a half-maximal effective concentration (EC50) of 1000 to 30000 nM.

In turn, `CCc1cc(C(=O)c2ccc(OC(F)(F)F)cc2)c(NC(=O)CCC(C)(C)C(=O)O)s1` [Example 146, 4-[5-Ethyl-3-(4-trifluoromethoxy-benzoyl)-thiophen-2-ylcarbamoyl]-2,2-dimethyl-butyric acid] registered an EC50 of less than 100 nM.

For the compound `CC(C)c1cc(C(=O)c2ccc(OC(F)(F)F)cc2)c(NC(=O)CSCC(=O)O)s1` [Example 133, {[5-Isopropyl-3-(4-trifluoromethoxy-benzoyl)-thiophen-2-ylcarbamoyl]-methylsulfanyl}-acetic acid], the concentration for a half-maximal effect (EC50) is less than 100 nM.

`CCc1cc(C(=O)c2ccc(OC(F)(F)F)cc2)c(NC(=O)CN2[C@@H](C(=O)O)CC[C@@H]2c2ccccc2)s1` [Example 184, (2R,5R)-1-{[5-Ethyl-3-(4-trifluoromethoxy-benzoyl)-thiophen-2-ylcarbamoyl]-methyl}-5-phenyl-pyrrolidine-2-carboxylic acid] came in with an EC50 of less than 100 nM.

For the compound `CCc1cc(C(=O)c2ccc(OC(F)(F)F)cc2)c(NC(=O)CN2CCC(C(=O)O)CC2)s1` [Example 163, 1-{[5-Ethyl-3-(4-trifluoromethoxy-benzoyl)-thiophen-2-ylcarbamoyl]-methyl}-piperidine-4-carboxylic acid], the EC50 was in the range of 100 to 1000 nM.
